Measured values taken from the kinase profiling compilation of Christmann-Franck et al. (2016).

Experiments:
Test in all cases: KINOMEscan competition binding
Conditions in all cases: compound 10.0 µM
[1] = test system: ABL1 (human), P00519 [E255K]
[2] = target: BTK (human) (UniProt Q06187)
[3] = target: CDK13 (human) (UniProt Q14004)
[4] = target: CDK4 CCND1 (human) (UniProt P11802+P24385)
[5] = target: CDK4 CCND3 (human) (UniProt P11802+P30281)
[6] = target: CDKL1 (human) (UniProt Q00532)
[7] = target: DDR1 (human) (UniProt Q08345)
[8] = target: DYRK1A (human) (UniProt Q13627)
[9] = target: DYRK2 (human) (UniProt Q92630)
[10] = test system: EGFR (human), P00533 [746-750 del]
[11] = test system: EGFR (human), P00533 [G719S]
[12] = target: EPHB6 (human) (UniProt O15197)
[13] = target: ERN1 (human) (UniProt O75460)
[14] = test system: FLT3 (human), P36888 [K663Q]
[15] = target: HIPK4 (human) (UniProt Q8NE63)
[16] = target: ICK (human) (UniProt Q9UPZ9)
Chain of ICK (human) (Q9UPZ9 whole entry, looked up): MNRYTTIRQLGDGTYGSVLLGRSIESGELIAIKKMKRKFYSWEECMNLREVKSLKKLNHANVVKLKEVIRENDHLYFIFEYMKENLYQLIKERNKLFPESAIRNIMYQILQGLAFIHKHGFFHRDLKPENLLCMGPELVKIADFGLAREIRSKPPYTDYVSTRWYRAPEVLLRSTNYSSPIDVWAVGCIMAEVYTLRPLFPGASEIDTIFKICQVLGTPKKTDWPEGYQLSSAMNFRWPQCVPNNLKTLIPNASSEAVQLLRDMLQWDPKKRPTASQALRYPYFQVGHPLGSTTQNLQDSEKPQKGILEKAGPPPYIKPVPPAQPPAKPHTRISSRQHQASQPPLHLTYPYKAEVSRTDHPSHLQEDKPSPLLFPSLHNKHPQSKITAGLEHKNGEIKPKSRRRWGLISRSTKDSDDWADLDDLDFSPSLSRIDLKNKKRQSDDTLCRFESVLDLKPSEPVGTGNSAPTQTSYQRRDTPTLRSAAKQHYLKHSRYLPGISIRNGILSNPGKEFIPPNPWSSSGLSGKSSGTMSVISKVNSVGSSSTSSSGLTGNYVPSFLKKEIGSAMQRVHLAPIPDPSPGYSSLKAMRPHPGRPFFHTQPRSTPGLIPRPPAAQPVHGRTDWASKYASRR

[17] = target: KIT (human) (UniProt P10721)
[18] = target: LRRK2 (human) (UniProt Q5S007)
[19] = target: MAP2K7 (human) (UniProt O14733)
[20] = target: MAP3K2 (human) (UniProt Q9Y2U5)
Chain of MAP3K2 (human) (Q9Y2U5 whole entry, looked up): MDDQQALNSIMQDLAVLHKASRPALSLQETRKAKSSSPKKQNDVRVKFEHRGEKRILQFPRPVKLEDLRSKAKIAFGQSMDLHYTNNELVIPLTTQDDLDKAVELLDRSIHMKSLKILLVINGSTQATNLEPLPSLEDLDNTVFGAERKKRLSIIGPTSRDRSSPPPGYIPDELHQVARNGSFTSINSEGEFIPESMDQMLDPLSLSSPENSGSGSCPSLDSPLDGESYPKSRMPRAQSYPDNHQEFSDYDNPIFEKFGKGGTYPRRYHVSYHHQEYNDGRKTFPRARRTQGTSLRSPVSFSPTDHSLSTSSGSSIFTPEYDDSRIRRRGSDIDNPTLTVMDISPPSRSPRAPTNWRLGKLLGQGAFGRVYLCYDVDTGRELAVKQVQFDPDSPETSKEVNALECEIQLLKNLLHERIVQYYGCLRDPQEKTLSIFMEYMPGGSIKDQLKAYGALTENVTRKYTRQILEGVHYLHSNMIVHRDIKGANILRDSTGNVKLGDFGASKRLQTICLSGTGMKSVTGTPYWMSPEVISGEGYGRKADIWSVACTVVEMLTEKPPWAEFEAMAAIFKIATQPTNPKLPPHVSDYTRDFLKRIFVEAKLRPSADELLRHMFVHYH

[21] = target: MAP3K6 (human) (UniProt O95382)
[22] = target: MATK (human) (UniProt P42679)
[23] = target: MET (human) (UniProt P08581)
[24] = target: MTOR (human) (UniProt P42345)
[25] = target: MYLK3 (human) (UniProt Q32MK0)
Chain of MYLK3 (human) (Q32MK0 whole entry, looked up): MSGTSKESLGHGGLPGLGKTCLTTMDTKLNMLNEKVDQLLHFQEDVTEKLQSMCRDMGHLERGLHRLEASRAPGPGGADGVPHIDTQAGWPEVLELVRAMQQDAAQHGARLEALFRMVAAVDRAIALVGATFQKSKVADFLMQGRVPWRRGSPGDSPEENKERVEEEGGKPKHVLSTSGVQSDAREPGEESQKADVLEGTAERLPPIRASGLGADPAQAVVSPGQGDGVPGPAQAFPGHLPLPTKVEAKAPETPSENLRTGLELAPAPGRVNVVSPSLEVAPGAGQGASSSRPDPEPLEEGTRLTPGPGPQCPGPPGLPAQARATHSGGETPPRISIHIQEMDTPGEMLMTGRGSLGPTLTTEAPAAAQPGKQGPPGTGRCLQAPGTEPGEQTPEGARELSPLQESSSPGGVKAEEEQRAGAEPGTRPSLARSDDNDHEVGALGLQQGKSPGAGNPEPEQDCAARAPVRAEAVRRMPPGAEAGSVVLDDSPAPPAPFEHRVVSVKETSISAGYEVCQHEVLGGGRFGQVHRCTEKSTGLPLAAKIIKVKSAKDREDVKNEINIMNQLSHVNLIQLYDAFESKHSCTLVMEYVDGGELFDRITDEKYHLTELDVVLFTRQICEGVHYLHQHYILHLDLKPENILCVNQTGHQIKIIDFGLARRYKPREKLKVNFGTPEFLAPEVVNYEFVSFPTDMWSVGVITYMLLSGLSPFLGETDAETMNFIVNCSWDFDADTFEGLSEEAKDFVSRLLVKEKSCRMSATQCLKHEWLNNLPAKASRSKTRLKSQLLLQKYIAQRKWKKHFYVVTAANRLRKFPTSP

[26] = target: NEK3 (human) (UniProt P51956)
Chain of NEK3 (human) (P51956 whole entry, looked up): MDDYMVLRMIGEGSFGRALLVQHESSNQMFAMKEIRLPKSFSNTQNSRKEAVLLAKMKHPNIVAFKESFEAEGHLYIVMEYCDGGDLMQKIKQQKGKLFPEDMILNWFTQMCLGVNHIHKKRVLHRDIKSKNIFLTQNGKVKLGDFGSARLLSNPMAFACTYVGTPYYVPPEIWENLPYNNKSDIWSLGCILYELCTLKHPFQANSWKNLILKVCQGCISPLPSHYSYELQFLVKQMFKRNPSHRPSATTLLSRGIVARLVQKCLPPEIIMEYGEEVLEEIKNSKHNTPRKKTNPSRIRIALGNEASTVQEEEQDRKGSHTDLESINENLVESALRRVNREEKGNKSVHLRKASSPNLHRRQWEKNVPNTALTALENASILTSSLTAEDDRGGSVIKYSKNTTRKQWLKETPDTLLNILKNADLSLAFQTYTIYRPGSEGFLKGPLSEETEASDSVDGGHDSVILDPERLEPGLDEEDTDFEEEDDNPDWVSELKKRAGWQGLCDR

[27] = target: NEK4 (human) (UniProt P51957)
[28] = target: NIM1 (human) (UniProt Q8IY84)
Chain of NIM1 (human) (Q8IY84 whole entry, looked up): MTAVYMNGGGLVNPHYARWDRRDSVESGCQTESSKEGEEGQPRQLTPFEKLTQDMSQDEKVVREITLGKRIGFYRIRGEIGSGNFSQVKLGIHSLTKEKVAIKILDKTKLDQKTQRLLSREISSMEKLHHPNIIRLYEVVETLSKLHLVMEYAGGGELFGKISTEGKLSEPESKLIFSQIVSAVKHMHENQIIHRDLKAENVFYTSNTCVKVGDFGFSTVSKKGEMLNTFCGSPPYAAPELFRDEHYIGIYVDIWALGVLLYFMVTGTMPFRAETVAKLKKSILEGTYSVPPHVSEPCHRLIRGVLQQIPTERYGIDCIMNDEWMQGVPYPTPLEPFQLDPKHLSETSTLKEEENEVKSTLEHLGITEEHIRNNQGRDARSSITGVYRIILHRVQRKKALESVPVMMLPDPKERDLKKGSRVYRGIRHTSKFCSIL

[29] = target: PI4KB (human) (UniProt Q9UBF8)
[30] = test system: PIK3CA (human), P42336 [C420R]
Chain of PIK3CA (human), P42336 [C420R] (P42336 whole entry C420R, looked up): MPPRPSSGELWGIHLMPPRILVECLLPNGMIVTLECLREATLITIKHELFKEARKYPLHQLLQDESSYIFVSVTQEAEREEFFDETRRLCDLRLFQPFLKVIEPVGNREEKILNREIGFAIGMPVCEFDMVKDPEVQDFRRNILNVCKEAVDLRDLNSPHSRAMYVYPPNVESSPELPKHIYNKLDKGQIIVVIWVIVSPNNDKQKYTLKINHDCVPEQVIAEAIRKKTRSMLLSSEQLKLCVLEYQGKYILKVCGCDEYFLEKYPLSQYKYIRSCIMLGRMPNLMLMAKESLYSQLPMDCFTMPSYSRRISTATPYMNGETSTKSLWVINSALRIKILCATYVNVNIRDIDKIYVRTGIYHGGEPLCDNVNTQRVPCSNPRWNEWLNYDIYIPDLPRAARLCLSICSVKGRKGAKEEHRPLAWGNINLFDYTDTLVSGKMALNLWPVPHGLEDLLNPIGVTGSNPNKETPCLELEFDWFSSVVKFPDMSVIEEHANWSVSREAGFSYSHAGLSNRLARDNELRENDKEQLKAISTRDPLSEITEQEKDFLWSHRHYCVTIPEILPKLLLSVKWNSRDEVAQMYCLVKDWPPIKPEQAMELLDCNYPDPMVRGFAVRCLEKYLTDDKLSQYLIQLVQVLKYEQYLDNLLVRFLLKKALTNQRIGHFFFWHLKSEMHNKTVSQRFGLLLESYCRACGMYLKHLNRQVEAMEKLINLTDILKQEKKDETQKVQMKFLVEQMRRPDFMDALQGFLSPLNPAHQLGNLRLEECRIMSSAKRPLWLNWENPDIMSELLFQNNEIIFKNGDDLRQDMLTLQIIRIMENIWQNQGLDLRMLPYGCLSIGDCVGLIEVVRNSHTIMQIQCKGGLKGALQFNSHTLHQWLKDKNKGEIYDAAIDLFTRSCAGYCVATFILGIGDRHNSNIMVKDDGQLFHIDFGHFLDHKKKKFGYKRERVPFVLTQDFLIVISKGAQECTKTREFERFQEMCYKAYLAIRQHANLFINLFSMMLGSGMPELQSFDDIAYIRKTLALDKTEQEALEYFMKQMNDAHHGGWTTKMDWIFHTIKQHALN

[31] = test system: PIK3CA (human), P42336 [E545A]
Chain of PIK3CA (human), P42336 [E545A] (P42336 whole entry E545A, looked up): as the sequence (P42336 whole entry C420R, looked up) above, with R420C, E545A counted along it

[32] = target: PIK3CG (human) (UniProt P48736)
[33] = target: PIP4K2C (human) (UniProt Q8TBX8)
[34] = target: PKN3 (M.tuberculosis) (UniProt Q6P5Z2)
[35] = target: PRKCI (human) (UniProt P41743)
Chain of PRKCI (human) (P41743 whole entry, looked up): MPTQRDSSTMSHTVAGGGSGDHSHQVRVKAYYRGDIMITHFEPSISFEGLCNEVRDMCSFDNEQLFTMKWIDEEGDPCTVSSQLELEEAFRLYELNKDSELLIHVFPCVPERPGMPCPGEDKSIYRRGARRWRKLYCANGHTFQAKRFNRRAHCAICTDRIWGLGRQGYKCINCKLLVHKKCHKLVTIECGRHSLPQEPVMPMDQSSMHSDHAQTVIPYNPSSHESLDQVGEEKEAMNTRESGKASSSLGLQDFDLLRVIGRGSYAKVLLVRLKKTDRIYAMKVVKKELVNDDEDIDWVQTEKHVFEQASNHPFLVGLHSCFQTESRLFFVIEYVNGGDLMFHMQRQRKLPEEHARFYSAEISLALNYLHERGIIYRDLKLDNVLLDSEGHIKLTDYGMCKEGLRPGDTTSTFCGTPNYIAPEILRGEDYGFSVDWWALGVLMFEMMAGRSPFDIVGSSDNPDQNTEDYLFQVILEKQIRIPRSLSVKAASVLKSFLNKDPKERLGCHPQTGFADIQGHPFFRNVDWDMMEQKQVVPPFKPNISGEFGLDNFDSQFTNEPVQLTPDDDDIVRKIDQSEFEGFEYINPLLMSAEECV

[36] = target: ROCK1 (human) (UniProt Q13464)
[37] = target: SIK3 (human) (UniProt Q9Y2K2)
[38] = target: TBK1 (human) (UniProt Q9UHD2)
[39] = target: TRPM6 (human) (UniProt Q9BX84)
[40] = target: BRAF (human) (UniProt P15056)

Row | Compound | kinase still bound, per cent of control [1] | kinase still bound, per cent of control [2] | kinase still bound, per cent of control [3] | kinase still bound, per cent of control [6] | kinase still bound, per cent of control [7] | kinase still bound, per cent of control [8] | kinase still bound, per cent of control [9] | kinase still bound, per cent of control [10] | kinase still bound, per cent of control [11] | kinase still bound, per cent of control [12] | kinase still bound, per cent of control [13] | kinase still bound, per cent of control [14] | kinase still bound, per cent of control [15] | kinase still bound, per cent of control [16] | kinase still bound, per cent of control [17] | kinase still bound, per cent of control [18] | kinase still bound, per cent of control [19] | kinase still bound, per cent of control [20] | kinase still bound, per cent of control [21] | kinase still bound, per cent of control [22] | also measured
1 | C=CC(=O)Nc1cccc(Nc2nc(N[C@H]3CC[C@H](N(C)C)CC3)nc3c2ncn3C(C)C)c1 | 70% | 35% | 40% | 100% | 100% | 20% | 58% | 88% | 98% | 74% | 96% | 1.2% | 63% | 100% | 52% | 61% | 100% | 0.2% | 86% | 40% | kinase still bound, per cent of control [4]: 40%; kinase still bound, per cent of control [5]: 23%; kinase still bound, per cent of control [23]: 100%; kinase still bound, per cent of control [24]: 100%; kinase still bound, per cent of control [25]: 100%; kinase still bound, per cent of control [26]: 60%; kinase still bound, per cent of control [27]: 100%; kinase still bound, per cent of control [28]: 66%; kinase still bound, per cent of control [29]: 100%; kinase still bound, per cent of control [30]: 89%; kinase still bound, per cent of control [31]: 100%; kinase still bound, per cent of control [32]: 100%; kinase still bound, per cent of control [33]: 66%; kinase still bound, per cent of control [34]: 82%; kinase still bound, per cent of control [35]: 93%; kinase still bound, per cent of control [36]: 16%; kinase still bound, per cent of control [37]: 92%; kinase still bound, per cent of control [38]: 84%; kinase still bound, per cent of control [39]: 66%
2 | COc1cc(N2CCN(C)CC2)ccc1Nc1nc(N)c(C(=O)c2c(Cl)cccc2Cl)s1 | 90% | 100% | 83% | 88% | 98% | 72% | 89% | 85% | 88% | 63% | 99% | 100% | 24% | 7.4% | 100% | 81% | 100% | 79% | 100% | 61% | kinase still bound, per cent of control [40]: 94%; kinase still bound, per cent of control [23]: 100%; kinase still bound, per cent of control [24]: 100%; kinase still bound, per cent of control [25]: 100%; kinase still bound, per cent of control [26]: 89%; kinase still bound, per cent of control [27]: 96%; kinase still bound, per cent of control [28]: 80%; kinase still bound, per cent of control [29]: 100%; kinase still bound, per cent of control [30]: 100%; kinase still bound, per cent of control [31]: 100%; kinase still bound, per cent of control [32]: 86%; kinase still bound, per cent of control [33]: 46%; kinase still bound, per cent of control [34]: 80%; kinase still bound, per cent of control [35]: 93%; kinase still bound, per cent of control [36]: 79%; kinase still bound, per cent of control [37]: 76%; kinase still bound, per cent of control [38]: 100%; kinase still bound, per cent of control [39]: 5.2%
